Results: patent US4701406A, “Assay for the detection of epigenetic toxic (non-genotoxic) substances” (priority 1984, dated 1987)
Read-outs that look alike come from different tables or passages of the source.

Assays:
[1] = tested on: cytoskeletal elements (microtubules and microfilaments) of Swiss 3T3 cells
[2] = tested on: cytoskeletal elements (microtubules) of quiescent 3T3 cells
skin = details: cited from earlier work
genetic material = details: presently used assays; cited from earlier work
[3] = Table I; recognized by U.S. Department of Health and Human Services; cited from earlier work
tubulin = details: in vitro; cited from earlier work

Question: Which “Cytoskeletal Perturbation” value ([1]; 2.5 × 10^-5 M, 3.0 hrs, FIG. 1c) does the source give for `O=S(=O)([O-])[O-].[Cd+2]` [Cd(II) as CdSO4, CdSO4] here?
Answer: Its value is “positive”.

Question: For `[K+].[K+].[O]=[Cr](=[O])([O-])[O][Cr](=[O])(=[O])[O-]` [Cr(VI) as K2 Cr2 O7, K2 Cr2 O7], which “Cytoskeletal Perturbation” value [1] is on record?
Answer: The value was “positive”.

Question: What about the “Cytoskeletal Disruption” value ([2]; 1.2 × 10^-3 M, 3 hours, FIG. 2c) of the same compound?
Answer: Its value is “positive”.

Question: With `Nc1ccc(N)cc1` [PPD, P--Phenylene-diamine] as the compound, how does the “Cytoskeletal Perturbation” value ([1]; 5.0 × 10^-4 M, 3.5 hrs, FIG. 1h) read?
Answer: The value was “positive”.

Question: And the skin sensitization (skin; human as well as animal studies)?
Answer: Its skin sensitization is “potent skin sensitizers”.

Question: What about the “Health Hazardous Activity (potent skin sensitizer)” value (skin; identified by skin patch test) of the same compound?
Answer: The value was “sensitizer”.

Question: And the “identification by genotoxicity / mutagenicity assays” value (genetic material)?
Answer: Its value is “consistently failed to be identified”.

Question: What does the source list for `O=S(=O)([O-])[O-].[Ni+2]` [Ni(II) as NiSO4, NiSO4]?
Answer: Cytoskeletal Perturbation [1]: positive; Cytoskeletal Disruption ([2]; 1.5 × 10^-3 M, 3 hours, FIG. 2d): positive

Question: For `O=[N+]([O-])c1ccc(F)c([N+](=O)[O-])c1` [FDNB, fluorodinitrobenzene], which allergic contact dermatitis (skin) is on record?
Answer: The allergic contact dermatitis was “severe allergic contact dermatitis”.

Question: Which “Cytoskeletal Perturbation” value ([1]; 5.0 × 10^-6 M, 2.0 hrs, FIG. 1g) does the source give for `O=[N+]([O-])c1ccc(Cl)c([N+](=O)[O-])c1` [CDNB, 1-Chloro-2,4-dinitro-benzene] here?
Answer: Its value is “positive”.

Question: What about the allergic contact dermatitis (skin) of the same compound?
Answer: Its allergic contact dermatitis is “severe allergic contact dermatitis”.

Question: What about the “Cytoskeletal Disruption” value ([2]; 5 × 10^-6 M, 2 hours, FIG. 2b) of the same compound?
Answer: The value was “positive”.

Question: What about the “identification by genotoxicity / mutagenicity assays” value (genetic material) of the same compound?
Answer: The value was “consistently failed to be identified”.

Question: With `O=S(=O)([O-])[O-].[Co+2]` [Co(II) as CoSO4, CoSO4] as the compound, how does the “Cytoskeletal Perturbation” value ([1]; 4.0 × 10^-4 M, 17.0 hrs, FIG. 1f) read?
Answer: Its value is “positive”.

Question: And the “Health Hazardous Activity (carcinogen / promoter)” value [3]?
Answer: The value was “Carcinogen”.

Question: What does the source list for `CC(=O)O[C@H]1C(=O)[C@@]2(C)[C@H]([C@H](OC(=O)c3ccccc3)[C@]3(O)C[C@H](OC(=O)[C@H](O)[C@@H](NC(=O)c4ccccc4)c4ccccc4)C(C)=C1C3(C)C)[C@]1(OC(C)=O)CO[C@@H]1C[C@@H]2O` [taxol]?
Answer: effectiveness, taxol introduced prior to vs simultaneously with the epigenetic substances ([2]; prior to or simultaneous treatment): no discernible difference in effectiveness; Cytoskeletal Disruption ([2]; taxol alone, 12 × 10^-6 M, 2 hours, FIG. 2h): negative; tubulin polymerization (tubulin): promote tubulin polymerization in vitro

Question: Which “Cytoskeletal Perturbation” value [1] does the source give for `O=[As][O-].[Na+]` [As(III) as NaAsO2, NaAsO2] here?
Answer: The value was “positive”.
